For 14 compounds, IC50 and EC50 results are on record in patent publication EP4782453A1 (Beyang Therapeutics Co., Ltd., priority 2023, dated 2025).

What all share (assay type): cell-based
For test [1], the system named is MV-4-11 (carrying MLL-AF4). Kind of test: Inhibition of proliferation of human tumor cells (Alamar Blue, 7 days), MV-4-11. The following applies: Homo sapiens, MV4-11, 168 h, MV-4-11 cells (carrying MLL-AF4), method calls the value GI50. In a few lines: (§1)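 Cells seeded at 4,000/well (MV-4-11, MOLM-13) or 3,000/well (KG-1a) in serum-supplemented IMDM or RPMI-1640, 37°C, 5% CO2, then exposed to 3- or 4-fold compound dilutions in duplicate for 7 days. Alamar Blue fluorescence read; GI50 derived against Day 7 0.1% DMSO (high) and Day 0 (low) controls.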
In general terms: Resazurin is reduced to fluorescent resorufin, in cell work by metabolically active cells.

Test [2] has as its system MOLM-13 (carrying MLL-AF9). Kind of test: Inhibition of proliferation of human tumor cells (Alamar Blue, 7 days), MOLM-13. The following applies: Homo sapiens, 168 h, MOLM-13 cells (carrying MLL-AF9), method calls the value GI50. In a few lines: as §1
Test [3] deals with MEIS1 gene expression. As to the kind of experiment: Inhibition of MEIS1 gene expression in human tumor cells (qRT-PCR), MV-4-11. The following applies: MV4-11, MV-4-11 (carrying MLL-AF4), 48 hours of incubation, relative MEIS1 gene expression vs GAPDH, read-out: MV-4-11 MEISI EC50. An excerpt: (§2) Experimental Example 3: Evaluation of Inhibitory Activity of Compounds Against MEISI Gene Expression in Human Tumor Cells
(§3) The effect of test samples on MEIS1 gene expression in vitro cultured human leukemia cells MV-4-11 (carrying MLL-AF4), MOLM-13 (carrying MLL-AF9), and OCI-AML3 (carrying NPM1c) was studied.
(§4) • Human acute lymphoblastic leukemia cells MV-4-11, purchased from American Type Culture Collection, Catalog Number: CRL-9591; • Human acute myeloid leukemia cells MOLM-13, purchased from COBIOER BIOSCIENCES CO., LTD, Catalog Number: CBP60678; • Human acute myeloid leukemia cells OCI-AML3, purchased from COBIOER BIOSCIENCES CO., LTD, Catalog Number: CBP60817; • MEIS1 Primer/Probe, purchased from IDT, Catalog Number: 40831613; and • GAPDH Primer/Probe, purchased from IDT, Catalog Number: 22214836.
(§5) MV-4-11 cells were cultured in an IMDM medium containing 10% fetal bovine serum, or MOLM-13 and OCI-AML3 cells were cultured in an RPMI-1640 medium containing 20% fetal bovine serum, each supplemented with 100 U·mL^-1 penicillin and 100 µg·mL^-1 streptomycin. These cells were cultured at 37°C with 5% CO2. The suspensions of individual cell lines were prepared in their respective media and seeded into 48-well plates at a density of 100,000 cells/well. On the day of the experiment, a compound stock solution was diluted in a 6-fold gradient using DMSO. Each gradient-diluted stock solution was then further diluted 250-fold with a complete medium to prepare a series of working solutions at different concentrations. Next, 250 µL of working solution (containing the complete medium with a 2-fold serial concentration of the test compound or a positive control compound, or containing a control complete medium) was added to each well. After 48 hours of incubation, cells from the 48-well plate were collected into 1 mL centrifuge tubes, centrifuged at 1000 rpm for 5 minutes, and the complete medium was removed. Cells were washed twice with 1 mL PBS and centrifuged to remove PBS. Total RNA was extracted using the RNeasy Mini Kit (250) (QIAGEN, 74106). The threshold cycle (Ct) value for gene expression was determined using the HiScript II U+ One Step qRT-PCR Probe Kit (Vazyme) (Vazyme, Q223-01), with 3 replicates per sample. The prepared reaction mixture was placed in an ABI 7500 real-time PCR instrument, and the reaction proceeded following the procedures below. [formula]
(§6) Next, for the relative MEIS1 gene expression, the concentration (EC50) that inhibits 50% of relative MEIS1 gene expression was calculated using GraphPad Prism 8 software.

Test [4] has as its system MEIS1 gene expression. Kind of test: Inhibition of MEIS1 gene expression in human tumor cells (qRT-PCR), MOLM-13. The following applies: MOLM-13 (carrying MLL-AF9), 48 hours of incubation, relative MEIS1 gene expression vs GAPDH.
Description: as §2, §3, §4, §5, §6
(In qPCR the cycle at which signal appears reflects the starting amount.)

Test [5] concerns MEIS1 gene expression. Kind of test: Inhibition of MEIS1 gene expression in human tumor cells (qRT-PCR), OCI-AML3. Conditions: OCI-AML-3, OCI-AML3 (carrying NPM1c), 48 hours of incubation, relative MEIS1 gene expression vs GAPDH.
Description: as §2, §3, §4, §5, §6

SMILES strings stand for the structures.

In general, IC50 refers to the point on the concentration scale where inhibition reaches its midpoint. As a reminder, the EC50 is the concentration at which the effect is half-maximal. Turning to `Cc1nc(F)c2c(-c3ccc(F)cc3C(=O)N3CCOC[C@H]3C)cc(C3CN([C@H](CN4CCN(C)CC4)C(C)C)C3)cn12` [Example 368-2, (3R)-4-[5-fluoro-2-(1-fluoro-3-methyl-6-{1-[(2S)-3-methyl-1-(4-methylpiperazin-1-yl)butan-2-yl]azacyclobutan-3-yl}imidazo[1,5-a]pyridin-8-yl)benzoyl]-3-methylmorpholine], the figures for the IC50 in test [1] and in test [2] were 5 nM and 8.6 nM, respectively. Also, the EC50 came to 7.8 nM in test [3], 9.1 nM in test [4] and 17 nM in test [5].
The corresponding values for `CC(=O)N1CCN(CCC[C@H](C(C)C)N2CC(c3cc(-c4ccc(F)cc4C(=O)N4CCOC[C@H]4C)c4c(F)nc(C)n4c3)C2)CC1` [Example 265] are 8.6 nM, 25 nM, 54 nM, 38 nM and 70 nM.
The corresponding values for `CCN(C(=O)c1cc(F)ccc1-c1cc(C2CN([C@H](CCCN3CCN(CCO)CC3)C(C)C)C2)cn2c(C)ncc12)C(C)C` [Example 398, N-ethyl-5-fluoro-2-(6-{1-[(3R)-6-[4-(2-hydroxyethyl)piperazin-1-yl]-2-methylhexan-3-yl]azacyclobutan-3-yl}-3-methylimidazo[1,5-a]pyridin-8-yl)-N-(isopropyl)benzamide] are 1.1 nM, 4.3 nM, 1.9 nM, 2.6 nM and 13 nM.
The corresponding values for `COC1CCN(CCC[C@H](C(C)C)N2CC(c3cc(-c4ccc(F)cc4C(=O)N4CCOC[C@H]4C)c4c(F)nc(C)n4c3)C2)CC1` [Example 204, (3R)-4-[5-fluoro-2-(1-fluoro-6-{1-[(3R)-6-(4-methoxypiperidin-1-yl)-2-methylhexan-3-yl]azacyclobutan-3-yl}-3-methylimidazo[1,5-a]pyridin-8-yl)benzoyl]-3-methylmorpholine] are 2.8 nM, 11.2 nM, 15 nM, 4.3 nM and 13 nM.
For the compound `CCN(C(=O)c1cc(F)ccc1-c1cc(C2CN([C@H](CCCN3CCN(C(C)=O)CC3)C(C)C)C2)cn2c(C)ncc12)C(C)C` [Example 311-2, 2-(6-{1-[(3R)-6-(4-acetylpiperazin-1-yl)-2-methylhexan-3-yl]azacyclobutan-3-yl}-3-methylimidazo[1,5-a]pyridin-8-yl)-N-ethyl-5-fluoro-N-(isopropyl)benzamide], the IC50 came to 4.7 nM in test [1] and 26 nM in test [2]. Besides, the EC50 turned out to be 19 nM in test [3], 11 nM in test [4] and 23 nM in test [5].
As to `CCN(C(=O)c1cc(F)ccc1-c1cc(C2CN([C@@H](C)C3CCN(C(=O)CO)CC3)C2)cn2c(C)nc(F)c12)C(C)C` [Example 284-2], the 50% inhibitory concentration (IC50) in test [1] is 1.5 nM; in test [2], 6.8 nM. For the same compound, the EC50 in test [4] is 5.9 nM; in test [5] it was 5.8 nM.
`CC[C@@H](C1CCN(C(C)=O)CC1)N1CC(c2cc(-c3ccc(F)cc3C(=O)N3CCOC[C@H]3C)c3c(F)nc(C)n3c2)C1` [Example 280-1, 1-{4-[(1S)-1-[3-(1-fluoro-8-{4-fluoro-2-[(3R)-3-methylmorpholin-4-carbonyl]phenyl}-3-methylimidazo[1,5-a]pyridin-6-yl)azacyclobutan-1-yl]propyl]piperidin-1-yl}ethan-1-one]: the results for the IC50 in test [1] and in test [2] were 6.9 nM and 27 nM, respectively. Also, the EC50 is 61 nM in test [3], 23 nM in test [4] and 34 nM in test [5].
For `CCN(C(=O)c1cc(F)ccc1-c1cc(C2CN([C@H](CCCN3C[C@H]4C[C@@H]3CO4)C(C)C)C2)cn2c(C)ncc12)C(C)C` [Example 379, N-ethyl-5-fluoro-2-(3-methyl-6-{1-[(3R)-2-methyl-6-[(1R,4R)-2-oxa-5-azabicyclo[2.2.1]heptan-5-yl]hexan-3-yl]azacyclobutan-3-yl}imidazo[1,5-a]pyridin-8-yl)-N-(isopropyl)benzamide] the same measures were 0.4 nM, 2.5 nM, 2.4 nM, 2 nM and 7.5 nM.
For `CC(=O)N1CCC([C@H](C)N2CC(c3cc(-c4ccc(F)cc4C(=O)N4CCOC[C@H]4C)c4c(F)nc(C)n4c3)C2)CC1` [Example 257-2, 1-{4-[(1S)-1-[3-(1-fluoro-8-{4-fluoro-2-[(3R)-3-methylmorpholin-4-carbonyl]phenyl}-3-methylimidazo[1,5-a]pyridin-6-yl)azacyclobutan-1-yl]ethyl]piperidin-1-yl}ethan-1-one] the same measures were 17 nM, 31 nM, 19 nM, 15 nM and 33 nM.
For `COCCN(C)CCC[C@H](C(C)C)N1CC(c2cc(-c3ccc(F)cc3C(=O)N3CCOC[C@H]3C)c3c(F)nc(C)n3c2)C1` [Example 200-1] the same measures were 3.2 nM, 10.2 nM, 12 nM, 1 nM and 13 nM.
Turning to `Cc1nc(F)c2c(-c3ccc(F)cc3C(=O)N3CCOC[C@H]3C)cc(C3CN([C@H](CO[C@@H]4CCCN(C)C4)C(C)C)C3)cn12` [Example 297-1, (3R)-4-[5-fluoro-2-(1-fluoro-3-methyl-6-{1-[(2S)-3-methyl-1-{[(3R)-1-methylpiperidin-3-yl]oxy}butan-2-yl]azacyclobutan-3-yl}imidazo[1,5-a]pyridin-8yl)benzoyl]-3-methylmorpholine], the IC50 in test [1] is 12 nM; in test [2], 36 nM. The EC50 in test [3] amounted to 32 nM; in test [4], 12 nM; in test [5], 34 nM.
As for `CCN(C(=O)c1cc(F)ccc1-c1cc(C2CN([C@H](CN3CCN(CCO)CC3)C(C)C)C2)cn2c(C)ncc12)C(C)C` [Example 431, N-ethyl-5-fluoro-2-(6-{1-[(2S)-1-[4-(2-hydroxylethyl)piperazin-1-yl]-3-methylbutan-2-yl]azacyclobutan-3-yl}-3methylimidazo[1,5-a]pyridin-8-yl)-N-(isopropyl)benzamide], the IC50 in test [1] was determined as 4.7 nM; in test [2] it was 15 nM. Moreover, the EC50 worked out at 5.5 nM in test [3], 4.6 nM in test [4] and 33 nM in test [5].
The corresponding values for `Cc1nc(F)c2c(-c3ccc(F)cc3C(=O)N3CCOC[C@H]3C)cc(C3CN([C@H](CCCN4CCN(C)CC4)C(C)C)C3)cn12` [Example 275, (3R)-4-[5-fluoro-2-(1-fluoro-3-methyl-6-{1-[(3R)-2-methyl-6-(4-methylpiperazin-1-yl)hexan-3-yl]azacyclobutan-3-yl}imidazo[1,5-a]pyridin-8-yl)benzoyl]-3-methylmorpholine] are 2.6 nM, 9.4 nM, 8.3 nM, 7.7 nM and 16 nM.
For `COC1CCN(CCCC(C(C)C)N2CC(c3cc(-c4ccc(F)cc4C(=O)N4CCOCC4C)c4c(F)nc(C)n4c3)C2)C1` (stereo not drawn) [Example 201-1] the same measures were 2.4 nM, 5.1 nM, 3.4 nM, 1 nM and 2.4 nM.
